Patent US12502344B2, “Deodorants comprising alkylamido and alkenylamido-morpholinium compositions” (Colonial Chemical, Inc., priority 2021, dated 2025)

Test: Deodorization evaluation, forced-preference panel test of acetic acid malodor on cotton balls
Conditions: approx. 50 mg acetic acid on cotton ball in closed 32 oz jar; sprayed with 0.25 g, 0.5 g, 2.0 g and 5 g of approx. 0.8% by weight active in water; equilibrated 2 hrs; ten panelists; FIG. 1
Procedure: Deodorization Evaluations. Forced Preference Tests.
In the deodorization studies, two substances were tested for their ability to deodorize malodor: 1) Soyaethyl Morpholinium Ethosulfate (U.S. Pat. No. 4,851,214); and 2) Soyamidopropyl Ethylmorpholinium Ethosulfate (from this invention). These two products are Products 1 and 2, respectively, in FIG. 1. Both materials contain a quaternized morpholinium functionality within the deodorant molecule. All test formulations were approximately 0.8% by weight of active deodorizer/sequestrant in water.
Both products were tested as follows: Approximately 50 milligrams of acetic acid were placed on cotton balls (approximately 0.63 g in weight). The cotton balls were placed in 32 oz plastic jars, one per jar, and the lids were screwed on. After equilibrating for 4 hours the cotton balls were sprayed with predetermined amounts (0.25 g, 0.5 g, 2.0 g and 5 g) of deodorizing spray formulations and placed back in closed containers where they equilibrated for 2 hrs. In forced-preference testing, ten panelists were asked to open each jar and rate each on a scale from 1 to 10 with 10 being the highest level of acetic acid detected. The results of those ratings appear in FIG. 1 where the ratings given for each test substance is graphed versus the weight in grams of deodorizing formulations that had been applied to each cotton ball. […]

| Compound | perceivable malodor (odor rating on a scale from 1 to 10, 10 being the highest level of acetic acid detected) |
| --- | --- |
| CCCCCCCC/C=C\CCCCCCCC[N+]1(CC)CCOCC1 [Product 1, Soyaethyl Morpholinium Ethosulfate] | reduced the perceivable malodor in a concentration-dependent fashion |
| Soyamidopropyl Ethylmorpholinium Ethosulfate [Product 2] | reduced the perceivable malodor in a concentration-dependent fashion |
